Tests used:
hCG protein [1] = target: T1, hCG protein (Homo sapiens, UniProt P01215+P0DN86); assay: SPR kinetics of peptide-hCG binding, carboxyl-GO chip, clinical serum samples
hCG protein [2] = target: T1, hCG protein; assay: SPR kinetics of peptide-hCG binding, GO-based chip, PBS buffer; settings: hCG 10 pM-1 nM, 30 μL/min, 1:1 Langmuir model
[3] = system: peptide probe immobilized on carboxyl-GO chip; assay: SPR selectivity test with interfering proteins, PBS buffer; format: binding; settings: for interference signal: 500 pM, carboxyl-GO-based SPR aptasensor, PBS and spiked 10% serum; for average SPR angle shift: protein 500 pM, PBS buffer, 60 μL/min, measured six times
[4] = system: peptide probe immobilized on carboxyl-GO chip; assay: SPR selectivity test with interfering proteins, spiked 10% serum; format: binding; settings: protein 500 pM, 60 μL/min, measured six times

T1 sequence (P01215 25-116, other chains not shown): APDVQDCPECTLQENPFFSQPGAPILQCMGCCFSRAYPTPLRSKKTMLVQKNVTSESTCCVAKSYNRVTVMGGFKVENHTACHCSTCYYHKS

H-PPLRINRHILTR-OH [peptide]
binding constant KA (hCG protein [1]; serum FDSW-1, 19 weeks): 7.22e+10 M⁻¹
binding constant KA (hCG protein [1]; serum FDSW-2, 14 weeks): 9.39e+10 M⁻¹
binding constant KA (hCG protein [1]; serum FDSW-3, 12 weeks): 2.033e+11 M⁻¹
binding constant KA (hCG protein [1]; serum FDSW-4, 12 weeks): 5.71e+10 M⁻¹
binding constant KA (hCG protein [1]; serum FDSW-5, 16 weeks): 5.14e+10 M⁻¹
binding constant KA (hCG protein [1]; serum FDSW-6, 17 weeks): 1.39e+11 M⁻¹
binding constant KA (hCG protein [1]; serum NPW-1, 15 weeks): 2.819e+11 M⁻¹
binding constant KA (hCG protein [1]; serum NPW-2, 12 weeks): 2.763e+11 M⁻¹
binding constant KA (hCG protein [1]; serum NPW-3, 14 weeks): 1.28e+10 M⁻¹
binding constant KA (hCG protein [1]; serum NPW-4, 17 weeks): 1.48e+10 M⁻¹
KA (hCG protein [2]): 1.41e+10 M⁻¹
ka (hCG protein [2]): 7.32 ×10^6 M^−1S^−1
kd (hCG protein [2]): 5.22 ×10^−4 S^−1

bovine serum albumin [BSA]
interference signal [3]: close to that of a blank solution
average SPR angle shift [3]: 1.31 m^o
average SPR angle shift [4]: 2.60 m^o

pregnancy-associated plasma protein A2 [PAPP-A2]
interference signal [3]: close to that of a blank solution
average SPR angle shift [3]: 2.39 m^o
average SPR angle shift [4]: 2.51 m^o

pregnancy-associated plasma protein A [PAPP-A]
interference signal [3]: close to that of a blank solution
average SPR angle shift [3]: 1.37 m^o
average SPR angle shift [4]: 2.42 m^o

B1: human cytokeratin 19 (protein, UniProt P08727 1-400, looked up)
Keratin, type I cytoskeletal …: MTSYSYRQSSATSSFGGLGGGSVRFGPGVAFRAPSIHGGSGGRGVSVSSARFVSSSSSGAYGGGYGGVLTASDGLLAGNEKLTMQNLNDRLASYLDKVRALEAANGELEVKIRDWYQKQGPGPSRDYSHYYTTIQDLRDKILGATIENSRIVLQIDNARLAADDFRTKFETEQALRMSVEADINGLRRVLDELTLARTDLEMQIEGLKEELAYLKKNHEEEISTLRGQVGGQVSVEVDSAPGTDLAKILSDMRSQYEVMAEQNRKDAEAWFTSRTEELNREVAGHTEQLQMSRSEVTDLRRTLQGLEIELQSQLSMKAALEDTLAETEARFGAQLAHIQALISGIEAQLGDVRADSERQNQEYQRLMDIKSRLEQEIATYRSLLEGQEDHYNNLSASKVL
interference signal [3]: close to that of a blank solution
average SPR angle shift [3]: 1.65 m^o
average SPR angle shift [4]: 1.74 m^o
